Where a chain is given by its changes, count along the chain named. Square brackets hold non-standard residues; d marks the D form. Peptide text beside a SMILES is read from it. * marks the point of attachment. Biotin = O=C1N[C@H]2[C@H](CS[C@H]2CCCCC(=O)*)N1; pT = C[C@@H](OP(=O)(O)O)[C@H](N)C(=O)O; Nle = CCCC[C@H](N)C(=O)O
Tests used:
Mad1 597–718 RLK/AAA = target: T1, Mad1 597–718 RLK/AAA (Homo sapiens, UniProt Q9Y6D9, K619A/L618A/R617A); experiment: SPR, binding of CD1 peptide to Mad1 597–718 RLK/AAA; details: Mad1 597–718 RLK/AAA injected up to 250 μM, 25 °C
T1 construct: His; Strep; made in house; host or cells: E. coli BL21(DE3) (stated for the wild-type construct)
T1 sequence (Q9Y6D9 597-718 R617A/L618A/K619A limits assumed): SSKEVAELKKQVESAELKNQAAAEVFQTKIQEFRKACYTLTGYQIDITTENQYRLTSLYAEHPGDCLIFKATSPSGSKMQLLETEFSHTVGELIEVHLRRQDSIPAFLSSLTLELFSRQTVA
Excerpt: (§1) To further investigate a possible direct interaction between Mad1 and CD1, we used surface plasmon resonance technology. […] To achieve a more efficient synthesis of CD1 peptides and in particularly of the phosphorylated peptides we used norleucine (Nle) instead of methionine (Met) but we cannot exclude that Mad1 will have a different affinity for peptides containing methionine. […] Given that Ser459 and Thr461 phosphorylation was critical for Bub1 functionality in vivo we tested if they affected Mad1 597–718 binding. […] As the Mad1 RLK motif is required for binding Bub1 in budding yeast in vivo[39], we tested whether this motif was required for direct binding to CD1 phosphorylated on Thr461. […] We furthermore analysed the binding of Mad1 597–718 to CD1 peptides harboring the Ile471Asp and […] (residues 474–476) mutations with Thr461 being phosphorylated.
Figure 4 Direct binding of Mad1 to CD1 peptide. […] The equilibrium dissociation constants, KD, were calculated using a steady-state affinity model and the lines represent the best fit to the model. […] (c) Sequence and summary of the affinity of CD1 peptides for Mad1 597–718 as determined by SPR.
Bub1 peptides were purchased from Biosyntan Gmbh (Germany). The purity obtained in the synthesis was 95–98% as determined by high-performance liquid chromatography (HPLC) and the identity of the peptides was confirmed by mass spectrometry. […]

Mad1 597–718 = target: T2, Mad1 597–718 (Homo sapiens, UniProt Q9Y6D9); experiment: SPR, binding of CD1 peptides to Mad1 597–718 (steady-state affinity); details: ratio of Kd, SPR, Mad1 597–718
T2 construct: His (N); Strep (N); made in house; host or cells: E. coli BL21(DE3)
T2 sequence (Q9Y6D9 597-718): T1 sequence (Q9Y6D9 597-718 R617A/L618A/K619A limits assumed) with A21R, A22L, A23K
Excerpt: as §1
Figure 4 Direct binding of Mad1 to CD1 peptide. (a) SPR steady-state responses for control, WT, pS459, pT461, pS459/pT461, I471D, MFQ/RKK and control Bub1 CD1 peptides to purified Mad1 597–718 protein. The biotinylated peptides were captured on a streptavidin-coated CM5 chip and increasing concentrations of Mad1 were subsequently added for binding assessment. Empty symbols represent experimental data points from two technical replicates using the same chip. An additional independent experiment with two replicates has been performed giving in all cases consistent results. The equilibrium dissociation constants, KD, were calculated using a steady-state affinity model and the lines represent the best fit to the model. […] (b) Similar to a, SPR steady-state responses for pT461 peptide with purified Mad1 597–718 or Mad1 597–718 RLK/AAA or the Mad1 485–718/Mad2 complex. (c) Sequence and summary of the affinity of CD1 peptides for Mad1 597–718 as determined by SPR.
Bub1 peptides were purchased from Biosyntan Gmbh (Germany). The purity obtained in the synthesis was 95–98% as determined by high-performance liquid chromatography (HPLC) and the identity of the peptides was confirmed by mass spectrometry. SPR experiments were performed on a Biacore T200 (GE Healthcare) at 25 °C. Streptavidin (ThermoFisher Scientific) at 0.05 mg ml^−1 in 10 mM sodium acetate, pH 4.5, was directly immobilized on a CM5 sensor chip (GE Healthcare) by standard amine coupling chemistry with N-hydroxysuccinimide and N-ethly-N′-(3-dimethlyaminopropyl)carbodiimide up to an immobilization level of approximately 2000 RU. Unreacted sites were quenched with ethanolamine HCl. Subsequently, N-terminal biotinylated Bub1 peptides (at 10 nM in HBS-EP+ buffer and flow rate 5 μl min^−1) were captured at ∼50 RU, respectively, in channels 2, 3 and 4 of the streptavidin coated chip, leaving channel 1 free for reference. An identical approach was used to prepare a second CM5 chip with the negative controls. In this case, a N-terminal biotinylated 5A mutant, a non-related phosphorylated peptide and the Bub1 pT461 peptide were captured, respectively, in channels 2, 3 and 4. HBS-EP+ (10 mM Hepes, pH 7.4, 150 mM NaCl, 3 mM EDTA, 0.05% (v/v) Surfactant P20) was used as running buffer for both streptavidin immobilization and peptide capture. […] Sensorgrams were analysed after double referencing. […]

binding (Mad1 597–718 RLK/AAA): no binding
stronger binding to Mad1 than unphosphorylated CD1 peptide (Mad1 597–718): 10 fold
Compound: CCCC[C@H](NC(=O)[C@H](CC(N)=O)NC(=O)[C@H](CCCC)NC(=O)[C@@H](NC(=O)[C@H](Cc1ccccc1)NC(=O)CNC(=O)[C@H](CC(C)C)NC(=O)[C@H](C)NC(=O)[C@H](CCC(=O)O)NC(=O)[C@H](CCCCN)NC(=O)[C@@H](NC(=O)[C@H](Cc1c[nH]cn1)NC(=O)[C@@H](NC(=O)[C@@H](NC(=O)[C@@H]1CCCN1C(=O)[C@H](CO)NC(=O)[C@@H]1CCCN1C(=O)[C@H](CCC(N)=O)NC(=O)[C@@H](NC(=O)[C@H](CCCCN)NC(=O)[C@H](CO)NC(=O)[C@@H]1CCCN1C(=O)[C@@H](NC(=O)[C@H](C)NC(=O)[C@H](CCC(N)=O)NC(=O)[C@@H](NC(=O)CCCC[C@@H]1SC[C@@H]2NC(=O)N[C@@H]21)C(C)C)[C@@H](C)O)C(C)C)[C@@H](C)OP(=O)(O)O)C(C)C)[C@@H](C)O)[C@@H](C)CC)C(=O)N[C@@H](Cc1ccccc1)C(=O)N[C@@H](CCC(N)=O)C(=O)N[C@@H](C)C(=O)N1CCC[C@H]1C(=O)N[C@H](C(=O)N[C@@H](CC(C)C)C(=O)N[C@@H](Cc1c[nH]c2ccccc12)C(=O)O)[C@@H](C)O [CD1 pT461] (Biotin-VQATPSKVQPSP[pT]VHTKEALGFI[Nle]N[Nle]FQAPTLW-OH; C-terminus assumed)
